Data published in publication PMC6274388, “Deoxyelephantopin from Elephantopus scaber Inhibits HCT116 Human Colorectal Carcinoma Cell Growth through Apoptosis and Cell Cycle Arrest” (Molecules, 2016).

Columns and labels:
[1] = tested on: HCT116 human colorectal carcinoma cells; experiment: MTT cytotoxicity assay on HCT116 cells; format: cell-based; conditions: for cell viability: HCT116, 72 h, 0.39–25.0 µg/mL; for IC50: Homo sapiens, HCT-116, HCT116, MTT
Description: (§1) HCT116 human colorectal cancer cells and CCD841-CoN normal cells were obtained from the American Type Culture Collection (ATCC, Manassas, VA, USA). HCT116 cells and CCD841-CoN normal cells were cultured in RPMI-1640 and EMEM media respectively, with 10% v/v heat-inactivated fetal bovine serum (FBS), 100 µg/mL penicillin streptomycin and 50 µg/mL amphotericin B at 37 °C in 5% CO2 incubator.
(§2) To investigate the cytotoxic effect of each fraction and compounds, the MTT assay was utilized. Cells were seeded and exposed to different concentrations (0.38–25 µg/mL) of each fraction which was dissolved in DMSO. 5-fluorouracil (5-FU) was used as positive control. Untreated cells (negative control) were treated with vehicle dimethyl sulfoxide (DMSO). The final concentration of DMSO was below 0.5% v/v in all experiments. MTT (5 mg/mL) was then added to each well after treatment and incubated for another 4 h at 37 °C. Subsequently, the medium was discarded and replaced by 150 µL of DMSO to dissolve the formazan crystals followed by quantified at 570 nm and 650 nm as a background using a microplate reader (Asys UVM340, Biochrom, Eugendorf, Austria). The percentage of cell viability was calculated according to the following equation: Cell viability percentage (%) = (Absorbance of treated cells/absorbance of untreated cells) × 100%.

[2] = tested on: cyclin E2; experiment: Western blot, cyclin E2 in HCT116 cells; format: cell-based, human; conditions: HCT116, 0.75, 1.5 and 3.0 µg/mL, 24 h
Description: (§3) 1 × 10^6 HCT116 cells were plated in 60 mm^2 culture dishes and exposed to varying concentrations of DET (0.75, 1.5 and 3.0 µg/mL) for 24 h. The cells were collected, resuspended in cold RIPA buffer containing protease and phosphatase inhibitors and placed on ice for 5 min followed by centrifugation at 14,000× g for 15 min at 4 °C. 25 μg of total proteins was separated on the 12% SDS-PAGE gels and transferred onto nitrocellulose membranes, followed by the blocking using skim milk/bovine serum albumin for 1 h. Membranes were incubated with primary antibodies (cleaved PARP, cleaved caspase-3, p-p53, p21, CDK2, CDK4, CDK 6, cyclin D1, cyclin A2, cyclin B, cyclin E and GAPDH, Cell Signaling) at 4 °C overnight. Subsequently, the membranes were washed with TBST (0.05% Tween 20 in TBS) and incubated with corresponding anti-mouse/rabbit immunoglobulin G-horseradish peroxidase-conjugated secondary antibody (Cell Signaling, Danvers, MA, USA) at room temperature for 1 h. Then, the membranes were washed with TBST. The bands was detected by using enhanced chemiluminescence (ECL) detection kit (BioRad, Hercules, CA, USA) and visualized using gel documentation system. Protein bands were analyzed quantitatively and qualitatively with Vilber Lourmart.

[3] = tested on: CDK4; experiment: Western blot, CDK4 in HCT116 cells; format: cell-based, human; conditions: HCT116, 0.75, 1.5 and 3.0 µg/mL, 24 h
Description: as §3

[4] = tested on: cyclin B1; experiment: Western blot, cyclin B1 in HCT116 cells; format: cell-based, human; conditions: HCT116, 0.75, 1.5 and 3.0 µg/mL, 24 h
Description: as §3

[5] = tested on: cleaved caspase-3; experiment: Western blot, cleaved caspase-3 in HCT116 cells; format: cell-based, human; conditions: HCT116, 0.75, 1.5 and 3.0 µg/mL, 24 h
Description: as §3

[6] = tested on: cleaved PARP; experiment: Western blot, cleaved PARP in HCT116 cells; format: cell-based, human; conditions: HCT116, 0.75, 1.5 and 3.0 µg/mL, 24 h
Description: as §3

[7] = tested on: phospho-p53; experiment: Western blot, phospho-p53 in HCT116 cells; format: cell-based, human; conditions: HCT116, 0.75, 1.5 and 3.0 µg/mL, 24 h
Description: as §3

[8] = tested on: p21; experiment: Western blot, p21 in HCT116 cells; format: cell-based, human; conditions: HCT116, 0.75, 1.5 and 3.0 µg/mL, 24 h
Description: as §3

[9] = tested on: cyclin D1; experiment: Western blot, cyclin D1 in HCT116 cells; format: cell-based, human; conditions: HCT116, 0.75, 1.5 and 3.0 µg/mL, 24 h
Description: as §3

[10] = tested on: CDK6; experiment: Western blot, CDK6 in HCT116 cells; format: cell-based, human; conditions: HCT116, 0.75, 1.5 and 3.0 µg/mL, 24 h
Description: as §3

[11] = tested on: HCT116 cells; experiment: Nuclear morphological changes, Hoechst 33342/PI staining; format: cell-based, human; conditions: HCT116, 0.75, 1.5 and 3.0 µg/mL, 24 h, dose-dependent
Description: 1 × 10^6 HCT116 cells were plated in 60 mm^2 culture dishes and treated with increasing concentrations of DET (0.75, 1.5 and 3.0 µg/mL) while negative control was treated with the vehicle DMSO for 24 h. Then, the cells were collected, washed with PBS and proceed to staining with Hoechst 33342 (40 µg/mL) and propidium iodide solution (10 µg/mL) at room temperature in the dark for 30 min. The cells were then examined by inverted fluorescence microscopy (DM1600B, Leica, Wetzlar, Germany).

[12] = tested on: CCD841CoN normal colon cells; experiment: MTT cytotoxicity assay on CCD841CoN normal colon cells; format: cell-based, human; conditions: for IC50: Homo sapiens, CCD-841CoN, MTT, 72 h
Description: as §1, §2

[13] = tested on: CDK2; experiment: Western blot, CDK2 in HCT116 cells; format: cell-based, human; conditions: HCT116, 0.75, 1.5 and 3.0 µg/mL, 24 h
Description: as §3

[14] = tested on: cyclin A2; experiment: Western blot, cyclin A2 in HCT116 cells; format: cell-based, human; conditions: HCT116, 0.75, 1.5 and 3.0 µg/mL, 24 h
Description: as §3

[15] = tested on: HCT116 cells; experiment: Cell cycle distribution by PI flow cytometry; format: cell-based, human; conditions: 24 h
Description: 1 × 10^6 HCT116 cells were plated in 60 mm^2 culture dishes and exposed to different concentrations of DET (0.75, 1.5 and 3.0 µg/mL) for 24 h. The cells were harvested and centrifuged at 300× g at room temperature. The cells were then resuspended in 1 mL of buffer solution followed by centrifugation and washing with buffer solution. Subsequently, 250 µL of Solution A (trypsin buffer) was added and incubated for 10 min, followed by addition of 100 µL of Solution B (trypsin inhibitor and RNase buffer) and incubated at room temperature for 10 min. 200 µL of cold PI solution was added, gently mixed and incubated on ice for 10 min in the dark. Finally, samples were assessed by using flow cytometry (BD, San Jose, CA, USA).

[16] = tested on: HCT116 cells; experiment: Externalization of phosphatidylserine, Annexin V-FITC/PI staining, flow cytometry; format: cell-based, human; conditions: 24 h
Description: 1 × 10^6 HCT116 cells were plated in 60 mm^2 culture dishes and exposed to different concentrations of DET (0.75, 1.5 and 3.0 µg/mL) for 24 h. Subsequently, cells were washed with PBS, resuspended in 1× Annexin V binding buffer and stained with Annexin V-fluorescein-isothiocyanate (FITC) (BD) and propidium iodide (PI) in the dark at room temperature for 15 min. 1× binding buffer was then added into each tube. The apoptotic and necrotic cell populations were then examined by flow cytometry. The fluorescence intensity was detected in FL1-A (x-axis) and FL2-A channel (y-axis).

[17] = 72 h, value in brackets after the µg/mL value
[18] = CCD841-CoN normal cell line, mean ± S.E. (n = 9)

With `C=C(C)C(=O)O[C@H]1CC2=C[C@H](C/C(C)=C/[C@H]3OC(=O)C(=C)[C@H]13)OC2=O` [Isodeoxyelephantopin, isodeoxyelephantopin] the cell viability [1] was “dose-dependent reduction of cell viability”, the IC50 ([1]; 72 h, mean ± S.E. (n = 9)) was 0.88 ± 0.02 µg/mL and the IC50 [1, 17] was 2.56 µM.
For `C=C(C)C(=O)O[C@H]1CC2=C[C@@H](C/C(C)=C/[C@H]3OC(=O)C(=C)[C@H]13)OC2=O` [Deoxyelephantopin, deoxyelephantopin], the “cyclin E2 protein expression” value [2] was “significant downregulation”, the CDK4 protein expression [3] was “significant downregulation” and the “cyclin B1 protein expression” value [4] was “significant downregulation”. The “cleaved caspase-3 protein expression” value [5] was “dose-dependent upregulation”, the “cleaved PARP protein expression” value [6] was “dose-dependent upregulation” and the phospho-p53 expression level [7] was “upregulated”. For the same compound, the p21 expression level [8] was “upregulated”, the “cyclin D1 protein expression” value [9] was “significant downregulation” and the CDK6 protein expression [10] was “remain constant”. For the same compound, the cell viability [1] was “dose-dependent reduction of cell viability”, the IC50 ([1]; 24 h) was 2.36 ± 0.02 µg/mL and the IC50 ([1]; 48 h) was 0.9 ± 0.02 µg/mL. The IC50 ([1]; 72 h, mean ± S.E. (n = 9)) was 0.73 ± 0.01 µg/mL, the IC50 [1, 17] was 2.12 µM and the “apoptotic morphological changes (chromatin condensation, cell shrinkage, DNA fragmentation)” value [11] was “apoptosis-inducing effect”. For the same compound, the IC50 [12, 18] was 21.7 ± 0.92 µg/mL, the IC50 ([12]; CCD841CoN normal cells, value in brackets after the µg/mL value) was 60 µM and the “difference in cytotoxicity, CCD841CoN normal cells compared to HCT116 cells” value ([12]; IC50 at 72 h) was 30 fold. The CDK2 protein expression [13] was “significant downregulation”, the “cyclin A2 protein expression” value [14] was “significant downregulation” and the “cells in the S phase” value ([15]; HCT116, 1.5 µg/mL) was 28.17% ± 0.23%. The “cells in the S phase” value ([15]; HCT116, 3.0 µg/mL) was 29.25% ± 0.21%, the cell cycle progression ([15]; HCT116, 0.75, 1.5 and 3.0 µg/mL) was “cell cycle arrest at S phase” and the “accumulation of apoptotic cells compared to untreated control” value ([16]; HCT116, 0.75 μg/mL) was “significant accumulation of apoptotic cells”. The “proportion of apoptotic cells (early and late apoptotic phases)” value ([16]; HCT116, 3.0 µg/mL) was 63.63% ± 2.03%, the necrotic cell death ([16]; HCT116, 0.75–3.0 µg/mL) was “did not significantly induce necrotic cell death” and the viability at 0.75 µg/mL ([16]; Homo sapiens, HCT-116, HCT116, 0.75 μg/mL, representative plot, read-out: Q1-LL cells (annexin−/PI−, viable)) was 74.8%. The viability at 1.5 µg/mL ([16]; Homo sapiens, HCT-116, HCT116, 1.50 μg/mL, representative plot, read-out: Q1-LL cells (annexin−/PI−, viable)) was 59.8% and the viability at 3 µg/mL ([16]; Homo sapiens, HCT-116, HCT116, 3.00 μg/mL, representative plot, read-out: Q1-LL cells (annexin−/PI−, viable)) was 34.1%.
`O=c1[nH]cc(F)c(=O)[nH]1` [5-Fluorouracil, 5-fluorouracil, reference compound] gave an IC50 ([1]; 72 h, mean ± S.E. (n = 9)) of 0.73 ± 0.02 µg/mL, an IC50 [1, 17] of 5 µM and an IC50 [12, 18] greater than 25 µg/mL.
